In the oligonucleotide strings, read from the 5' end, every base follows the letter of its sugar. An asterisk marks phosphorothioate; unmarked linkages are phosphodiester. Other units and linkages are bracketed, terminal groups are in braces. A string of capitals states the bases alone. [C6SSC6] = C6-disulfide-C6 linker; {Cy5} = Cy5 fluorescent dye label; d = 2'-deoxy (DNA); m = 2'-O-methyl; r = 2'-OH (RNA)
Assays:
[1] = system: p44/42 MAPK (Thr202/Tyr204) in CHO cells expressing mGlu7 receptors; assay: p44/42 MAPK activities (PathScan Sandwich ELISA) in CHO cells expressing mGlu7 receptors; assay type: cell-based, rat; conditions: 5 minutes stimulation; FIG. 8C
Procedure: Cells stably expressing the rat mGluR7 receptor are seeded in growth medium in 6 well plates. The next day, medium is replaced with 2 ml starvation medium (Opti-MEM with 0.1% fatty acid free BSA). The following day cells are stimulated with compound in 150 μl starvation medium for the indicated times at 37° C., otherwise cells are stimulated for 5 minutes. Cells are washed with ice cold PBS and lyzed in 150 ul buffer containing 1 mM β-glycerophosphate 1 mM EDTA, 1 mM EGTA, 1 μg/ml leupeptin, 150 mM sodium chloride, 2.5 mM sodium phosphate, 20 mM Tris-Cl, 1 mM PMSF and 1% Triton X-100, scraped off and sonicated on ice. After centrifugation the supernatant is analyzed for p44/42 MAPK activities using the PathScan™ Sandwich ELISA kit according to instructions of the manufacturer. Absorbance ([…]) is read using the EnVision reader (Perkin Elmer).

rat mGlu7a receptor = biological target: T1, rat mGlu7a receptor (Rattus norvegicus, UniProt P35400); assay: CRE-luciferase reporter gene assay in rat mGlu7a transfected CHO clones; assay type: cell-based; conditions: 1 μM forskolin and 0.5 mM L-AP4, 4 h; responses across clones ranged from no depression to this maximum
T1 construct: expressed in transfected cells
T1 sequence (P35400 35-915): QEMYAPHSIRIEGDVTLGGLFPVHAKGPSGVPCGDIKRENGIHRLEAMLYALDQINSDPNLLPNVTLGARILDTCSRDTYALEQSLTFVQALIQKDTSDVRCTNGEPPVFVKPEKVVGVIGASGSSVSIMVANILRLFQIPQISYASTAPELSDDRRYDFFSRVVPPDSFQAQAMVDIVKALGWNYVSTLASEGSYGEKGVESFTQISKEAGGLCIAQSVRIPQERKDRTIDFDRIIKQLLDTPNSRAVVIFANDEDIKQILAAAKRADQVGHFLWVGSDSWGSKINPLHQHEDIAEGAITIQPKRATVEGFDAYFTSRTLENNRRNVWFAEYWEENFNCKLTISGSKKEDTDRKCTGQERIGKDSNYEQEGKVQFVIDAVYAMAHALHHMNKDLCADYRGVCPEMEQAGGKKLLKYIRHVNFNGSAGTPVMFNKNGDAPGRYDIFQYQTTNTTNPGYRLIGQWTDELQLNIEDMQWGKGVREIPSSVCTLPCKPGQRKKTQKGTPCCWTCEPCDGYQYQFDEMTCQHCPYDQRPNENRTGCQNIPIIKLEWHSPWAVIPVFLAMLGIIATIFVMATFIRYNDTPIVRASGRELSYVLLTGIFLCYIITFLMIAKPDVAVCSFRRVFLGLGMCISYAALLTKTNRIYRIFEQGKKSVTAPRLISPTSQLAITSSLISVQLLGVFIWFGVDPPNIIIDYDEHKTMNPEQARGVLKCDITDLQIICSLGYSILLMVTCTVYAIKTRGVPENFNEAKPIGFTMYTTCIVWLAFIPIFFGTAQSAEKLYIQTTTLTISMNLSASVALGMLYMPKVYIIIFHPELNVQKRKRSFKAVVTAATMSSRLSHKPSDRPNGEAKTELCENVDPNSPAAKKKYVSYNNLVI
Description: The cDNA of the rat mGlu7a receptor splice variant (Genbank: D16817) was inserted into a eukaryotic expression vector pcDNA3.1(+). This plasmid was transfected into CHO cells deficient in dihydrofolate reductase activity (CHO-dhfr^−) harboring a luciferase reporter gene under the control of 5 cAMP-responsive elements (CRE) using Lipofectamine plus according to the instruction of the manufacturer. Clones were isolated through limited dilutions and identified by activities in the reporter gene assay. Cells were stimulated with 1 μM forskolin and 0.5 mM L-AP4 in the assay buffer. After 4 h the supernatant was exchanged with lysis buffer and the luciferase activity measured. Responses ranged from no depression to about 83% depression. A clonal cell line displaying the greatest inhibition of forskolin-mediated luciferase activity was selected and identified as giving consistently good responses for up to at least 20 passages.

rat mGluR7 receptor = biological target: T2, rat mGluR7 receptor (Rattus norvegicus, UniProt P35400); assay: Antibody mediated cellular uptake of siRNA-Cy5 in mGluR7 expressing CHO cells; assay type: cell-based; conditions: mix of 67 nM primary antibody and 20 nM siRNA-Cy5, 37° C., 40 minutes; FIG. 5 E-H
T2 construct: expressed in transfected cells
T2 sequence (P35400 35-915): as above
Procedure: The experiment was carried out according to the protocol, with the following modifications: The cells were incubated with 67 nm primary antibody conjugated to siRNA-Cy5 (Molar ratio 1 to 0.3) or a mix of 67 nM primary antibody and 20 nM siRNA-Cy5 at 37° C. for 40 minutes. The secondary antibody used for detection of cell surface primary immunostaining was labelled with Alexa488 and the secondary antibody used for detection of whole cell primary immunostaining was labelled with Alexa532. The Trueblue and hoechst staining of the cytoplasm was replaced with a staining step following the formaldehyde fixation, where the samples where incubated with 3 uM Hoechst and 2 μg/ml CellmaskBlue in PBS for 15 minutes at roomtemperature followed by a second fixation with 4% formaldehyde for 15 minutes at roomtemperature.
Each row contains images acquired in parallel of the same field of view in the well. Panel A-D is with primary antibody labelled with siRNA-Cy5, panel E-H with primary antibody mixed with siRNA-Cy5.

Row | Molecule | triggering of increases of p44/42 MAPK activities (specificity) [1] | depression of forskolin-mediated luciferase activity (rat mGlu7a receptor) | internalization without a covalent link between IgG and siRNA (rat mGluR7 receptor)
1 | Cl.Cl.c1ccc(C(NCCNC(c2ccccc2)c2ccccc2)c2ccccc2)cc1 [AMN082, Dibenzhydrylethane-1,2-diamine dihydrochloride] | do not trigger increases |  | 
2 | NC(CCP(=O)(O)O)C(=O)O [L-AP4] | do not trigger increases | about 83% | 
3 | siRNA: Cy5 labeled siRNA, sense SEQ ID NO: 1 with C6SSC6 linker, antisense SEQ ID NO: 2; tested mixed with IgG (sense {Cy5}-mCmUmUrAmCrGmCmUrGrArGmUrAmCmUmUmCrGrAdTdT[C6SSC6]dT; antisense rUrCrGrArArGmUrArCrUmCrArGrCrGmUrArArGdT*dT) |  |  | only the IgG is internalized
